Data published in US6737383B1, “Herbicidal oxadiazolidines” (priority 1999, dated 2004).

Columns and labels:
morningglory = assay: Test B pre/postemergence morningglory; assay type: in vivo, Ipomoea hederacea
Procedure, shortened: (§1)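 Herbicidal effect was estimated by eye on a ten-point control scale after plants spent twelve to sixteen days in a greenhouse following soil or foliar treatment. Foliar sprays targeted plants at one to four leaves; all doses were formulated in a non-phytotoxic solvent with surfactant.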

bamyardgrass = assay: Test B flood test barnyardgrass; assay type: in vivo, Echinochloa crus-galli
Procedure, shortened: (§2)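 Read-out is a visual response score from 0 (no effect) to 10 (complete control), assigned by comparison with untreated controls. Treatment was applied at the 2-leaf stage, and plants stayed in the greenhouse for twelve to sixteen days before scoring.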

sugar beet = assay: Test B pre/postemergence sugar beet; assay type: in vivo, Beta vulgaris
Procedure, shortened: as §1

rape = assay: Test B pre/postemergence rape; assay type: in vivo, Brassica napus
Procedure, shortened: as §1

purple nutsedge = assay: Test B pre/postemergence purple nutsedge; assay type: in vivo, Cyperus rotundus
Procedure, shortened: as §1

rice = assay: Test B flood test rice; assay type: in vivo, Oryza sativa
Procedure, shortened: as §2

duck salad = assay: Test B flood test duck salad; assay type: in vivo, Heteranthera limosa
Procedure, shortened: as §2

corn = assay: Test B pre/postemergence corn; assay type: in vivo, Zea mays
Procedure, shortened: as §1

smallflower flatsedge = assay: Test B flood test smallflower flatsedge; assay type: in vivo, Cyperus difformis
Procedure, shortened: as §2

crabgrass = assay: Test B pre/postemergence crabgrass; assay type: in vivo, Digitaria sanguinalis
Procedure, shortened: as §1

wild oat = assay: Test B pre/postemergence wild oat; assay type: in vivo, Avena fatua
Procedure, shortened: as §1

pigweed = assay: Test B pre/postemergence pigweed; assay type: in vivo, Amaranthus retroflexus
Procedure, shortened: as §1

giant foxtail = assay: Test B pre/postemergence giant foxtail; assay type: in vivo, Setaria faberii
Procedure, shortened: as §1

cocklebur = assay: Test B pre/postemergence cocklebur; assay type: in vivo, Xanthium strumarium
Procedure, shortened: as §1

wheat = assay: Test B pre/postemergence wheat; assay type: in vivo, Triticum aestivum
Procedure, shortened: as §1

surinam grass = assay: Test B pre/postemergence surinam grass; assay type: in vivo, Brachiaria decumbens
Procedure, shortened: as §1

[1] = Postemergence, Rate 62 g/ha, scale 0 to 10, 0 is no effect, 10 is complete control
[2] = Postemergence, Rate 125 g/ha, scale of 0 to 10 where 0 is no effect and 10 is complete control
[3] = Postemergence, Rate 250 g/ha, scale of 0 to 10, 0 is no effect, 10 is complete control
[4] = Preemergence, Rate 62 g/ha, scale of 0 to 10 where 0 is no effect and 10 is complete control
[5] = Preemergence, Rate 125 g/ha, scale of 0 to 10 where 0 is no effect and 10 is complete control
[6] = Preemergence, Rate 250 g/ha, scale 0 to 10 (0 no effect, 10 complete control)
[7] = Preemergence, Rate 500 g/ha, scale of 0 to 10 where 0 is no effect and 10 is complete control
[8] = Rate 500 g/ha, Postemergence, scale 0 to 10, 0 is no effect, 10 is complete control
[9] = Rate 62 g/ha, flood test species, Pre-emergence, visual evaluation after twelve to sixteen days
[10] = Rate 125 g/ha, under heading Pre-emergence, flood test species, visual evaluation after twelve to sixteen days
[11] = Rate 250 g/ha, Pre-emergence (flood test species), scale 0 to 10, 0 is no effect, 10 is complete control
[12] = Rate 500 g/ha, Pre-emergence section of Table B, 0 to 10 scale (0 no effect, 10 complete control)

Compound: CC(C)N(C(=O)n1oc(=O)n(C(C)C)c1=O)c1ccncc1 [Compound 663]
- Plant response rating, Morningglory (morningglory; [1]): 0
- Morningglory plant response rating (morningglory; [2]): 0
- Morningglory plant response rating (morningglory; [3]): 4
- Morningglory plant response rating (morningglory; [4]): 0
- Morningglory plant response rating (morningglory; [5]): 0
- Plant response rating, Morningglory (morningglory; [6]): 0
- Plant response rating, Morningglory (morningglory; [7]): 7
- Morningglory plant response rating (morningglory; [8]): 4
- Plant response rating, Barnyardgrass (0 to 10 scale, 0 is no effect, 10 is complete control) (bamyardgrass; [9]): 0
- Barnyardgrass plant response rating (0 to 10 scale, 0 is no effect, 10 is complete control) (bamyardgrass; [10]): 0
- Barnyardgrass plant response rating (bamyardgrass; [11]): 0
- Barnyardgrass plant response rating (bamyardgrass; [12]): 0
- Plant response rating, Sugarbeets (sugar beet; [1]): 0
- Sugarbeets plant response rating (sugar beet; [2]): 0
- Sugarbeets plant response rating (sugar beet; [4]): 0
- Sugarbeets plant response rating (sugar beet; [5]): 0
- Plant response rating, Sugarbeets (sugar beet; [6]): 0
- Plant response rating, Sugarbeets (sugar beet; [7]): 0
- Sugarbeets plant response rating (sugar beet; [8]): 4
- Plant response rating, Rape (rape; [1]): 0
- Rape plant response rating (rape; [2]): 0
- Rape plant response rating (rape; [4]): 0
- Rape plant response rating (rape; [5]): 0
- Plant response rating, Rape (rape; [6]): 0
- Plant response rating, Rape (rape; [7]): 4
- Rape plant response rating (rape; [8]): 0
- Plant response rating, Nutsedge (purple nutsedge; [1]): 0
- Nutsedge plant response rating (purple nutsedge; [2]): 0
- Nutsedge plant response rating (purple nutsedge; [4]): 0
- Nutsedge plant response rating (purple nutsedge; [5]): 0
- Plant response rating, Nutsedge (purple nutsedge; [6]): 0
- Plant response rating, Nutsedge (purple nutsedge; [7]): 0
- Nutsedge plant response rating (purple nutsedge; [8]): 0
- Plant response rating, Rice (0 to 10 scale, 0 is no effect, 10 is complete control) (rice; [9]): 0
- Rice plant response rating (0 to 10 scale, 0 is no effect, 10 is complete control) (rice; [10]): 0
- Rice plant response rating (rice; [11]): 0
- Rice plant response rating (rice; [12]): 0
- Plant response rating, Ducksalad (0 to 10 scale, 0 is no effect, 10 is complete control) (duck salad; [9]): 0
- Ducksalad plant response rating (0 to 10 scale, 0 is no effect, 10 is complete control) (duck salad; [10]): 0
- Ducksalad plant response rating (duck salad; [11]): 0
- Ducksalad plant response rating (duck salad; [12]): 0
- Plant response rating, Corn (corn; [1]): 0
- Corn plant response rating (corn; [2]): 0
- Corn plant response rating (corn; [3]): 0
- Corn plant response rating (corn; [4]): 0
- Corn plant response rating (corn; [5]): 0
- Plant response rating, Corn (corn; [6]): 0
- Plant response rating, Corn (corn; [7]): 0
- Corn plant response rating (corn; [8]): 0
- Plant response rating, S. Flatsedge (0 to 10 scale, 0 is no effect, 10 is complete control) (smallflower flatsedge; [9]): 0
- S. Flatsedge plant response rating (0 to 10 scale, 0 is no effect, 10 is complete control) (smallflower flatsedge; [10]): 0
- S. Flatsedge plant response rating (smallflower flatsedge; [11]): 0
- S. Flatsedge plant response rating (smallflower flatsedge; [12]): 0
- Plant response rating, Crabgrass (crabgrass; [1]): 0
- Crabgrass plant response rating (crabgrass; [2]): 0
- Crabgrass plant response rating (crabgrass; [3]): 0
- Crabgrass plant response rating (crabgrass; [4]): 0
- Crabgrass plant response rating (crabgrass; [5]): 0
- Plant response rating, Crabgrass (crabgrass; [6]): 0
- Plant response rating, Crabgrass (crabgrass; [7]): 0
- Crabgrass plant response rating (crabgrass; [8]): 4
- Plant response rating, Wild oats (wild oat; [1]): 0
- Wild oats plant response rating (wild oat; [2]): 0
- Wild oats plant response rating (wild oat; [4]): 0
- Wild oats plant response rating (wild oat; [5]): 0
- Plant response rating, Wild oats (wild oat; [6]): 0
- Plant response rating, Wild oats (wild oat; [7]): 0
- Wild oats plant response rating (wild oat; [8]): 0
- Plant response rating, Redroot pigweed (pigweed; [1]): 0
- Redroot pigweed plant response rating (pigweed; [2]): 0
- Redroot pigweed plant response rating (pigweed; [4]): 0
- Redroot pigweed plant response rating (pigweed; [5]): 0
- Plant response rating, Redroot pigweed (pigweed; [6]): 7
- Plant response rating, Redroot pigweed (pigweed; [7]): 7
- Redroot pigweed plant response rating (pigweed; [8]): 0
- Plant response rating, Giant foxtail (giant foxtail; [1]): 0
- Giant foxtail plant response rating (giant foxtail; [2]): 0
- Giant foxtail plant response rating (giant foxtail; [3]): 0
- Giant foxtail plant response rating (giant foxtail; [4]): 0
- Giant foxtail plant response rating (giant foxtail; [5]): 3
- Plant response rating, Giant foxtail (giant foxtail; [6]): 5
- Plant response rating, Giant foxtail (giant foxtail; [7]): 9
- Giant foxtail plant response rating (giant foxtail; [8]): 4
- Plant response rating, Cocklebur (cocklebur; [1]): 0
- Cocklebur plant response rating (cocklebur; [2]): 0
- Cocklebur plant response rating (cocklebur; [3]): 0
- Cocklebur plant response rating (cocklebur; [4]): 0
- Cocklebur plant response rating (cocklebur; [5]): 0
- Plant response rating, Cocklebur (cocklebur; [6]): 0
- Plant response rating, Cocklebur (cocklebur; [7]): 0
- Cocklebur plant response rating (cocklebur; [8]): 2
- Plant response rating, Wheat (wheat; [1]): 0
- Wheat plant response rating (wheat; [2]): 0
- Wheat plant response rating (wheat; [4]): 0
- Wheat plant response rating (wheat; [5]): 0
- Plant response rating, Wheat (wheat; [6]): 0
- Plant response rating, Wheat (wheat; [7]): 3
- Wheat plant response rating (wheat; [8]): 0
- Plant response rating, B. signalgrass (surinam grass; [1]): 0
- Plant response rating, B. signalgrass (surinam grass; [2]): 0
- B. signalgrass plant response rating (surinam grass; [3]): 0
- B. signalgrass plant response rating (surinam grass; [4]): 0
- B. signalgrass plant response rating (surinam grass; [5]): 0
- Plant response rating, B. signalgrass (surinam grass; [6]): 0
- Plant response rating, B. signalgrass (surinam grass; [7]): 0
- B. signalgrass plant response rating (surinam grass; [8]): 0
